# Where two headings read alike, the source gives them in different places.
# Key:
# [1] = Pharmacokinetics in NOD-SCID mice after PO VII calcium salt (plasma VI); assay type: in vivo; parameters: T-max (Compound VI in plasma): unit not given here
# Method: Initial PK data in NOD-SCID mice was generated in an intial study prior to dosing in this study.
# Due to precipitates observed in on-study formulations prepared in the initial study and other studies, additional PK data was obtained using remaining dosing solutions after study termination. NOD-SCID female mice (n=4) were dosed with 40 mg/kg dose solution of VII and plasma obtained at 1 hour post dose.
# Table 5A and 5B: PO administration of VII Calcium Salt: Mean Concentration of Compound VI in Plasma (ng/mL).
# [2] = system: MV4-11 human acute myeloid leukemia cells; test: Subcutaneous MV4-11 tumor growth (initial studies); assay type: in vivo, mice
# Excerpt: The Flt-3 ITD mutation has been associated with poor prognosis and reduced remission rates in affected AML patients, making it an attractive target for therapeutic intervention. Studies have shown that mutant Flt-3 ITD receptors dimerize in a Flt-3 ligand-independent manner and auto-phosphorylation of the receptor results in constitutive activation, increased proliferation, and growth factor independence of the mutant cell.
# [3] = GLP mutagenicity and clastogenicity studies (Ames, chromosomal aberration, mouse micronucleus)
# Method: (§1) GLP toxicology studies included negative mutagenicity and clastogenicity studies (Ames, chromosomal aberration, and mouse micronucleus). […] The No Observed Adverse Effect Level (NOAEL) is 10-30 mg/kg/day for rats and 100 mg/kg/day for monkeys.
# [4] = Solubility of drug and phosphate prodrug; assay type: physicochemical
# Excerpt: In contrast, Compound 4 is highly polar at neutral pH. Measured solubility values are consistent with the predicted cLogD values at pH=7.5.
# [5] = system: 32D transfected with ITD or point mutated Flt-3; test: Apoptosis of 32D transfectants (Annexin V and PI staining); assay type: cell-based; conditions: 1 uM, 24 h
# Method: (§2) AML cells or 32D transfectants were treated for 48 h (AML) or 24 h (32D) with 1 uM VI, and the increase in % of apoptotic cells was determined using Annexin V and PI staining.
# [6] = in vivo
# Method: as §1
# [7] = system: Myc-transformed pre-B cells; test: Proliferation (DNA content) of Myc-transformed pre-B cells; assay type: cell-based; conditions: 36 hours, 2 μM
# Excerpt: FIG. 2A is a FACS profile of pre-B cells that were transduced with Myc expression vectors and cultured in the absence of IL-7 for 1 week.
# To determine the effect of Syk inhibitor on proliferation of leukemic cells, several tumorigenic pre-B cell lines that induce leukemia after injection into mice were used. Because tumorigenic cells need the pre-B cell receptor (pre-BCR) for proliferation, and Syk is a critical protein for pre-BCR signaling cascade, it is expected that Syk inhibitors will inhibit proliferation of these tumorigenic pre-B cells. […] Cells were injected into […] mice to examine their ability to proliferate in vivo.
# [8] = system: AML cells harboring Flt-3 ITD; test: Apoptosis of AML cells (Annexin V and PI staining); assay type: cell-based; conditions: 1 uM, 48 h
# Method: as §2
# [9] = system: tumorigenic SLP-65−/− pre-B cell lines; test: Proliferation (DNA content) of tumorigenic SLP-65-/- pre-B cell lines; assay type: cell-based; conditions: 36 hours, 2 μM
# [10] = system: TEL-Syk-transformed cells; test: Proliferation (DNA content) and differentiation of TEL-Syk-transformed pre-B cells; assay type: cell-based
# Method: Cells were cultured for 3 days in the absence of IL-7 and analyzed for the expression of kappa LC by FACS. Experiments showing the inhibition of proliferation of Syk-transformed cells by a Syk inhibitory compound are described in […]., Abe, A., and Jumaa, H., “The protein tyrosine kinase Syk is involved in malignant transformation and leukemia development,” (manuscript in preparation). The experiments described in the manuscript are briefly summarized below. Aberrant Syk variants resulting from chromosomal translocation Tel-Syk were tested for its ability to transform pre-B cells by retrovirally transducing freshly isolated bone marrow pre-B cells with IRES-GFP vectors expressing Tel-Syk. […] Transformation of the pre B cells by Tel-Syk activity was confirmed by injecting the TEL-SYK transduced cells into RAG/γC-/- mice, which led to animals presenting symptoms of myelodysplastic disease. […] To test whether inhibition of Syk activity in the cells transformed with Tel-Syk block cell proliferation, the effect of Syk kinase inhibitor 2,4-pyrimidinediamine compound IV was tested in vitro by examining the DNA content of treated cells.
compound,measurement,setting,value
"N4-(2,2-dimethyl-4-[(dihydrogen phosphonoxy)methyl]-3-oxo-5-pyrido[1,4]oxazin-6-yl)-5-fluoro-N2-(3,4,5-trimethoxyphenyl)-2,4-pyrimidinediamine mono calcium salt [Compound 6]",AUCinf (Compound VI in plasma),"[1]; PO 20 mg/kg, Female",5362 ng·h/mL
same,AUClast (Compound VI in plasma),"[1]; PO 20 mg/kg, Female",5351 ng·h/mL
same,C-max (Compound VI in plasma),"[1]; PO 20 mg/kg, Female",3717 ng/mL
same,T1/2 (Compound VI in plasma),"[1]; PO 20 mg/kg, Female",35.4 min
same,T-max (Compound VI in plasma),"[1]; PO 20 mg/kg, Female",0.25
same,Mean Concentration of Compound VI in Plasma,"[1]; PO 20 mg/kg, Female, 0.25 hrs",3717 ng/mL
same,Mean Concentration of Compound VI in Plasma,"[1]; PO 20 mg/kg, Female, 0.5 hrs",2240 ng/mL
same,Mean Concentration of Compound VI in Plasma,"[1]; PO 20 mg/kg, Female, 1 hrs",1737 ng/mL
same,Mean Concentration of Compound VI in Plasma,"[1]; PO 20 mg/kg, Female, 2 hrs",1438 ng/mL
same,Mean Concentration of Compound VI in Plasma,"[1]; PO 20 mg/kg, Female, 4 hrs",55.0 ng/mL
same,Mean Concentration of Compound VI in Plasma,"[1]; PO 20 mg/kg, Female, 6 hrs",13.0 ng/mL
same,AUCinf (Compound VI in plasma),"[1]; PO 20 mg/kg, Male",11434 ng·h/mL
same,AUClast (Compound VI in plasma),"[1]; PO 20 mg/kg, Male",10261 ng·h/mL
same,C-max (Compound VI in plasma),"[1]; PO 20 mg/kg, Male",3377 ng/mL
same,T1/2 (Compound VI in plasma),"[1]; PO 20 mg/kg, Male",107 min
same,T-max (Compound VI in plasma),"[1]; PO 20 mg/kg, Male",0.50
same,Mean Concentration of Compound VI in Plasma,"[1]; PO 20 mg/kg, Male, 0.25 hrs",1872 ng/mL
same,Mean Concentration of Compound VI in Plasma,"[1]; PO 20 mg/kg, Male, 0.5 hrs",3377 ng/mL
same,Mean Concentration of Compound VI in Plasma,"[1]; PO 20 mg/kg, Male, 1 hrs",3280 ng/mL
same,Mean Concentration of Compound VI in Plasma,"[1]; PO 20 mg/kg, Male, 2 hrs",2130 ng/mL
same,Mean Concentration of Compound VI in Plasma,"[1]; PO 20 mg/kg, Male, 4 hrs",1209 ng/mL
same,Mean Concentration of Compound VI in Plasma,"[1]; PO 20 mg/kg, Male, 6 hrs",454 ng/mL
same,AUCinf (Compound VI in plasma),"[1]; PO 40 mg/kg, Female",11625 ng·h/mL
same,AUClast (Compound VI in plasma),"[1]; PO 40 mg/kg, Female",11498 ng·h/mL
same,C-max (Compound VI in plasma),"[1]; PO 40 mg/kg, Female",5497 ng/mL
same,T1/2 (Compound VI in plasma),"[1]; PO 40 mg/kg, Female",50.4 min
same,T-max (Compound VI in plasma),"[1]; PO 40 mg/kg, Female",1.00
same,Mean Concentration of Compound VI in Plasma,"[1]; PO 40 mg/kg, Female, 0.25 hrs",5140 ng/mL
same,Mean Concentration of Compound VI in Plasma,"[1]; PO 40 mg/kg, Female, 0.5 hrs",3597 ng/mL
same,Mean Concentration of Compound VI in Plasma,"[1]; PO 40 mg/kg, Female, 1 hrs",5497 ng/mL
same,Mean Concentration of Compound VI in Plasma,"[1]; PO 40 mg/kg, Female, 2 hrs",2823 ng/mL
same,Mean Concentration of Compound VI in Plasma,"[1]; PO 40 mg/kg, Female, 4 hrs",201 ng/mL
same,Mean Concentration of Compound VI in Plasma,"[1]; PO 40 mg/kg, Female, 6 hrs",105 ng/mL
same,AUCinf (Compound VI in plasma),"[1]; PO 40 mg/kg, Male",27170 ng·h/mL
same,AUClast (Compound VI in plasma),"[1]; PO 40 mg/kg, Male",20831 ng·h/mL
same,C-max (Compound VI in plasma),"[1]; PO 40 mg/kg, Male",6370 ng/mL
same,T1/2 (Compound VI in plasma),"[1]; PO 40 mg/kg, Male",138 min
same,T-max (Compound VI in plasma),"[1]; PO 40 mg/kg, Male",2.00
same,Mean Concentration of Compound VI in Plasma,"[1]; PO 40 mg/kg, Male, 0.25 hrs",3587 ng/mL
same,Mean Concentration of Compound VI in Plasma,"[1]; PO 40 mg/kg, Male, 0.5 hrs",2860 ng/mL
same,Mean Concentration of Compound VI in Plasma,"[1]; PO 40 mg/kg, Male, 1 hrs",5250 ng/mL
same,Mean Concentration of Compound VI in Plasma,"[1]; PO 40 mg/kg, Male, 2 hrs",6370 ng/mL
same,Mean Concentration of Compound VI in Plasma,"[1]; PO 40 mg/kg, Male, 4 hrs",1730 ng/mL
same,Mean Concentration of Compound VI in Plasma,"[1]; PO 40 mg/kg, Male, 6 hrs",1909 ng/mL
same,AUCinf (Compound VI in plasma),"[1]; PO 80 mg/kg, Female",27662 ng·h/mL
same,AUClast (Compound VI in plasma),"[1]; PO 80 mg/kg, Female",27013 ng·h/mL
same,C-max (Compound VI in plasma),"[1]; PO 80 mg/kg, Female",8193 ng/mL
same,T1/2 (Compound VI in plasma),"[1]; PO 80 mg/kg, Female",58.2 min
same,T-max (Compound VI in plasma),"[1]; PO 80 mg/kg, Female",2.00
same,Mean Concentration of Compound VI in Plasma,"[1]; PO 80 mg/kg, Female, 0.25 hrs",3847 ng/mL
same,Mean Concentration of Compound VI in Plasma,"[1]; PO 80 mg/kg, Female, 0.5 hrs",7433 ng/mL
same,Mean Concentration of Compound VI in Plasma,"[1]; PO 80 mg/kg, Female, 1 hrs",7267 ng/mL
same,Mean Concentration of Compound VI in Plasma,"[1]; PO 80 mg/kg, Female, 2 hrs",8193 ng/mL
same,Mean Concentration of Compound VI in Plasma,"[1]; PO 80 mg/kg, Female, 4 hrs",2529 ng/mL
same,Mean Concentration of Compound VI in Plasma,"[1]; PO 80 mg/kg, Female, 6 hrs",465 ng/mL
same,subcutaneous tumor growth,[2],reduced subcutaneous tumor growth
"COc1cc(Nc2ncc(F)c(Nc3ccc4c(n3)NC(=O)C(C)(C)O4)n2)cc(OC)c1OC [Compound III, N4-(2,2-dimethyl-3-oxo-4H-5-pyrido[1,4]oxazin-6-yl)-5-fluoro-N2-(3,4,5-trimethoxyphenyl)-2,4-pyrimidinediamine]",plasma levels of VI by 6 hours post-dose,"[1]; female mice, 20, 40 or 80 mg/kg doses of VII",virtually undetectable
same,"mutagenicity and clastogenicity (Ames, chromosomal aberration, mouse micronucleus)",[3],negative
same,solubility,"[4]; aqueous buffer, phosphate buffer at pH=7.5, read-out: measured solubility",< 1 µg/mL
same,solubility,"[4]; water solubility, read-out: Solubility",1 to 2 µg/mL
same,apoptosis of 32D transfected with ITD or point mutated Flt-3 vs wt Flt-3,[5],undergo more apoptosis
same,"28-day toxicity: hematology, bone marrow cellularity",[6]; monkey,reversible effect
same,"28-day toxicity: hematology, liver transaminase, spleen and thymus size, bone marrow cellularity",[6]; rat,reversible effect
same,proliferation of Myc-transformed pre-B cells,[7],block the proliferation
same,induced apoptosis of AML cells harboring Flt-3 ITD,[8],uniquely sensitive
same,proliferation of tumorigenic SLP-65−/− pre-B cell lines,[9],block the proliferation
same,differentiation of TEL-Syk-transformed pre-B cells (kappa light chain expression),[10],induce differentiation
same,proliferation of TEL-Syk-transformed pre-B cells,"[10]; DNA content, 36 hours, 2 μM",block proliferation
